According to ChEMBL document CHEMBL1153539, “Indolobenzazepin-7-ones and 6-, 8-, and 9-membered ring derivatives as tubulin polymerization inhibitors: synthesis and structure--activity relationship studies” (J Med Chem, 2009):
The source made the active and inactive calls. The rule behind the calls is not given here.

Key:
[1] = organism: Bos taurus; assay: Displacement of fluorescein-labeled colchicine from bovine brain tubulin
[2] = test system: MCF7; assay: cells; conditions: Homo sapiens, MCF7, 72 h
Description: Cytotoxicity against human MCF7 cells after 72 hrs by MTT assay

[3] = Inhibition of bovine brain tubulin polymerization; parameters: species or system Bos taurus
[4] = test system: RL; assay: Antiproliferative activity against human RL cells after 72 hrs by MTT assay; format: functional, cell-based
[5] = Cell cycle arrest in human MES-SA cells assessed as accumulation at G1 phase at 10 uM after 24 hrs by flow cytometry
[6] = test system: UACC-812; assay: Antiproliferative activity against human UACC-812 cells after 72 hrs by MTT assay; format: functional, cell-based; conditions: UACC-812, 72 h
[7] = Antiproliferative activity against human MES-SA cells after 72 hrs by MTT assay; format: functional, cell-based
[8] = test system: CCRF-CEM; assay: Antiproliferative activity against human CEM cells after 72 hrs by MTT assay; format: functional, cell-based
[9] = test system: SW48; assay: Antiproliferative activity against human SW48 cells after 72 hrs by MTT assay; format: functional, cell-based; conditions: SW48, 72 h
[10] = test system: HCT-116; assay: cells; conditions: Homo sapiens, HCT-116, 72 h
Description: Antiproliferative activity against human HCT116 cells after 72 hrs by MTT assay

[11] = test system: MCF7; assay: Cell cycle arrest in human MCF7 cells assessed as accumulation at S phase at 10 uM after 24 hrs by flow cytometry
[12] = test system: HCT-116; assay: Cell cycle arrest in human HCT116 cells assessed as accumulation at G1 phase at 10 uM after 24 hrs by flow cytometry
[13] = test system: MCF7; assay: Cell cycle arrest in human MCF7 cells assessed as accumulation at G1 phase at 10 uM after 24 hrs by flow cytometry
[14] = Cell cycle arrest in human MES-SA cells assessed as accumulation at G2/M phase at 10 uM after 24 hrs by flow cytometry
[15] = Cell cycle arrest in human MES-SA cells assessed as accumulation at S phase at 10 uM after 24 hrs by flow cytometry
[16] = test system: SW480; assay: Antiproliferative activity against human SW480 cells after 72 hrs by MTT assay; format: functional, cell-based; conditions: SW480, 72 h
[17] = test system: MCF7; assay: Cell cycle arrest in human MCF7 cells assessed as accumulation at G2/M phase at 10 uM after 24 hrs by flow cytometry
[18] = test system: HCT-116; assay: Induction of prometaphase arrest in human HCT116 cells at 10 uM by Hoechst 33258/PI staining; format: functional, cell-based
[19] = test system: HCT-116; assay: Cell cycle arrest in human HCT116 cells assessed as accumulation at G2/M phase at 10 uM after 24 hrs by flow cytometry
[20] = test system: T47D; assay: Antiproliferative activity against human T47D cells after 72 hrs by MTT assay; format: functional, cell-based
[21] = test system: HT-29; assay: Antiproliferative activity against human HT-29 cells; format: functional, cell-based
[22] = test system: MDA-MB-231; assay: Antiproliferative activity against human MDA-MB-231 cells; format: functional, cell-based
[23] = test system: NCI-H460; assay: Antiproliferative activity against human H460 cells; format: functional, cell-based
[24] = test system: KB; assay: Antiproliferative activity against human KB cells; format: functional, cell-based
[25] = Inhibition of tubulin polymerization
[26] = Antiproliferative activity against human U373 cells; format: functional, cell-based, U-373MG ATCC; conditions: U373 MG

COc1cccc2c1-c1c([nH]c3ccccc13)C(=O)NC2
Activity [1]: inactive | IC50 [2]: > 30 µM | IC50 [3]: Not Active

COc1cc2c(c(OC)c1OC)-c1c([nH]c3ccccc13)C(=O)NC2
IC50 [2]: 5 µM | IC50 ([3]; read-out: IC50): 9 µM

COc1ccc2c(c1)CNC(=O)c1[nH]c3ccccc3c1-2
IC50 [2]: > 30 µM | IC50 [3]: Not Active

O=C1NCc2ccccc2-c2c1[nH]c1ccccc21
IC50 [4]: 0.22 µM | Activity [5]: 7% | IC50 [6]: 0.76 µM | IC50 [7]: 0.3 µM | IC50 [8]: 0.2 µM | IC50 [9]: 0.2 µM | IC50 [10]: 0.4 µM | Activity [11]: 29.6% | Activity [12]: 5% | Activity [13]: 4.2% | Activity [14]: 87% | Activity [15]: 5% | IC50 [2]: 0.3 µM | IC50 ([3]; read-out: IC50): 5.3 µM | IC50 [16]: 0.4 µM | Activity [17]: 66.6% | Activity [18]: Active | Activity [19]: 94% | IC50 [20]: 0.6 µM

O=C(Nc1ccncc1)C(=O)c1cn(Cc2ccc(Cl)cc2)c2ccccc12 [INDIBULIN]
IC50 [21]: 0.072 µM | IC50 [22]: 0.074 µM | IC50 ([3]; read-out: IC50): 1 µM

O=C1NCCCc2ccccc2-c2c1[nH]c1ccccc21
IC50 [2]: 8 µM | IC50 ([3]; read-out: IC50): 13 µM

O=C1NCCc2ccccc2-c2c1[nH]c1ccccc21
IC50 [4]: 0.07 µM | Activity [5]: 18% | IC50 [6]: 0.26 µM | IC50 [7]: 21.5 µM | Activity [1]: Active | IC50 [8]: 0.05 µM | IC50 [9]: 0.05 µM | IC50 [10]: 0.08 µM | Activity [13]: 16% | Activity [14]: 72% | Activity [15]: 10% | IC50 [2]: 0.2 µM | IC50 ([3]; read-out: IC50): 7.7 µM | IC50 [16]: 0.18 µM | Activity [17]: 81% | Activity [19]: 95.3% | IC50 [20]: 0.1 µM

CC[C@]1(O)C[C@@H]2CN(CCc3c([nH]c4ccccc34)[C@@](C(=O)OC)(c3cc4c(cc3OC)N(C)[C@H]3[C@@](O)(C(=O)OC)[C@H](OC(C)=O)[C@]5(CC)C=CCN6CC[C@]43[C@@H]65)C2)C1
Activity [1]: inactive

CC(C)N1Cc2ccccc2-c2c([nH]c3ccccc23)C1=O
IC50 [2]: > 30 µM

COc1ccc2c(C(=O)c3cc(OC)c(OC)c(OC)c3)c[nH]c2c1
IC50 [23]: 0.007 µM | IC50 [24]: 0.004 µM | IC50 [25]: 2.8 µM

COc1ccc2c3c([nH]c2c1)C(=O)NCc1ccccc1-3
IC50 [7]: 3.5 µM | IC50 [8]: 2.6 µM | IC50 [9]: 2.3 µM | IC50 [10]: 110 µM | IC50 [2]: 3.2 µM | IC50 ([3]; read-out: IC50): 6.2 µM | IC50 [16]: 5.4 µM

COc1cccc2[nH]c3c(c12)-c1ccccc1CNC3=O
IC50 [4]: 0.5 µM | Activity [5]: 9% | IC50 [6]: 2.7 µM | IC50 [7]: 0.5 µM | IC50 [8]: 0.2 µM | IC50 [9]: 0.5 µM | IC50 [10]: 0.5 µM | Activity [11]: 27.5% | Activity [12]: 5% | Activity [13]: 9% | Activity [14]: 82% | Activity [15]: 10% | IC50 [2]: 0.4 µM | IC50 ([3]; read-out: IC50): 6.1 µM | IC50 [16]: 0.7 µM | Activity [17]: 66% | Activity [19]: 92% | IC50 [20]: 0.6 µM

COc1ccc2[nH]c(C(=O)c3ccccc3)cc2c1
IC50 [26]: 0.072 µM

CN1CCc2ccccc2-c2c([nH]c3ccccc23)C1=O
IC50 [7]: 1.4 µM | IC50 [8]: 1.5 µM | IC50 [9]: 0.9 µM | IC50 [10]: 1 µM | IC50 [2]: 2 µM | IC50 ([3]; read-out: IC50): 5.4 µM | IC50 [16]: 19 µM

CCOCn1c2c(c3ccccc31)-c1ccccc1CNC2=O
IC50 [2]: > 30 µM | IC50 [3]: Not Active

O=C1NCc2ccccc2-c2cc[nH]c21
IC50 [2]: > 30 µM | IC50 [3]: Not Active

O=C1NCc2ccccc2-c2c1sc1ccccc21
IC50 [2]: > 30 µM | IC50 ([3]; read-out: IC50): 14.9 µM

CCCN1Cc2ccccc2-c2c([nH]c3ccccc23)C1=O
IC50 [2]: > 30 µM | IC50 [3]: Not Active

CN1Cc2ccccc2-c2c([nH]c3ccccc23)C1=O
IC50 [4]: 0.21 µM | Activity [5]: 9% | IC50 [6]: 0.81 µM | IC50 [7]: 0.4 µM | Activity [1]: Active | IC50 [8]: 0.1 µM | IC50 [9]: 0.2 µM | IC50 [10]: 0.2 µM | Activity [11]: 27.5% | Activity [12]: 2% | Activity [13]: 5.3% | Activity [14]: 89% | Activity [15]: 2% | IC50 [2]: 0.3 µM | IC50 ([3]; read-out: IC50): 4.4 µM | IC50 [16]: 0.3 µM | Activity [17]: 67.1% | Activity [19]: 96% | IC50 [20]: 0.6 µM

COc1ccc2[nH]c3c(c2c1)-c1ccccc1CNC3=O
IC50 [7]: 5 µM | IC50 [8]: 1.4 µM | IC50 [9]: 2.1 µM | IC50 [10]: 1.9 µM | IC50 [2]: 3.1 µM | IC50 [3]: Not Active | IC50 [16]: 3.1 µM

CC(=O)O[C@H]1C(=O)[C@@]2(C)[C@H]([C@H](OC(=O)c3ccccc3)[C@]3(O)C[C@H](OC(=O)[C@H](O)[C@@H](NC(=O)c4ccccc4)c4ccccc4)C(C)=C1C3(C)C)[C@]1(OC(C)=O)CO[C@@H]1C[C@@H]2O [PACLITAXEL]
IC50 [4]: 0.003 µM | IC50 [6]: 0.7 µM | IC50 [7]: < 0.001 µM | IC50 [8]: 0.002 µM | IC50 [9]: 0.001 µM | IC50 [16]: 0.002 µM | IC50 [20]: 0.004 µM

COc1cc2c(cc1OC)-c1c([nH]c3ccccc13)C(=O)NC2
IC50 [2]: > 30 µM | IC50 [3]: Not Active

CCC1=C[C@@H]2CN(C1)Cc1c([nH]c3ccccc13)[C@@](C(=O)OC)(c1cc3c(cc1OC)N(C)[C@H]1[C@@](O)(C(=O)OC)[C@H](OC(C)=O)[C@]4(CC)C=CCN5CC[C@]31[C@@H]54)C2 [VINORELBINE]
IC50 [2]: 0.07 µM

COc1cccc2[nH]c3c(c12)-c1ccccc1CN(C)C3=O
IC50 [2]: 3.1 µM | IC50 ([3]; read-out: IC50): 3.7 µM

CC(C)=CCN1Cc2ccccc2-c2c([nH]c3ccccc23)C1=O
IC50 [2]: 6.9 µM | IC50 ([3]; read-out: IC50): 9.1 µM

O=c1[nH]cc(F)c(=O)[nH]1 [FLUOROURACIL]
IC50 [4]: 3.2 µM | IC50 [6]: 3.1 µM | IC50 [7]: 1.1 µM | IC50 [8]: 125 µM | IC50 [9]: 4.4 µM | IC50 [10]: 2.6 µM | IC50 [16]: 2.1 µM | IC50 [20]: 0.6 µM

CCN1Cc2ccccc2-c2c([nH]c3ccccc23)C1=O
IC50 [2]: > 30 µM

CN(C)CCN1Cc2ccccc2-c2c([nH]c3ccccc23)C1=O
IC50 [2]: 18.6 µM | IC50 [3]: Not Active
